Data: PubChem BioAssay AID1259411 (Chemical Carcinogenesis Research Information System (CCRIS), 2018)
Activity calls are given as the source filed them. The rule behind the calls is not given here.

Tested on: rodent carcinogenicity bioassays, tumor incidence
Assay: CCRIS carcinogenicity studies
Procedure, shortened: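 NCI-built, expert-reviewed records of carcinogenicity and related test outcomes (mutagenicity, tumor promotion/inhibition) compiled from published and report sources, historical span 1985-2011, not updated.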

Compound: Clc1ccc2c(c1)Oc1ccc(Cl)cc1O2
- carcinogen call (Species: MOUSE, Strain/Sex: B6C3F1/FEMALE, Route: ORAL, Dose: 0, 5,000, 10,000 PPM IN DIET FOR 90 WK (STUDY DURATION: 91-98 WK), Dose: 0, 5,000, 10,000 PPM IN DIET FOR 90 WK (STUDY DURATION: 91-98 WK)): inactive; negative
- carcinogen call (Species: MOUSE, Strain/Sex: B6C3F1/MALE, Route: ORAL, Dose: 0, 5000, 10000 PPM IN DIET FOR 90 WK (STUDY DURATION: 92-101 WK), Dose: 0, 5000, 10000 PPM IN DIET FOR 90 WK (STUDY DURATION: 92-101 WK), Tumor Site: Type of Lesion: LIVER: HEPTOCELLULAR ADENOMA OR CARCINOMA, HEMATOPOIETIC SYSTEM: LYMPHOMA OR LEUKEMIA, SPLEEN: HEMANGIOMA OR HEMANGIOSAR, Tumor Site: Type of Lesion: LIVER: HEPTOCELLULAR ADENOMA OR CARCINOMA, HEMATOPOIETIC SYSTEM: LYMPHOMA OR LEUKEMIA, SPLEEN: HEMANGIOMA OR HEMANGIOSAR): equivocal
- carcinogen call (Species: RAT, Strain/Sex: OSBORNE-MENDEL/FEMALE, Route: ORAL, Dose: 0, 5,000, 10,000 PPM IN DIET FOR 110 WK (STUDY DURATION: 110-117 WK), Dose: 0, 5,000, 10,000 PPM IN DIET FOR 110 WK (STUDY DURATION: 110-117 WK)): inactive; negative
- carcinogen call (Species: RAT, Strain/Sex: OSBORNE-MENDEL/MALE, Route: ORAL, Dose: 0, 5,000, 10,000 PPM IN DIET FOR 110 WK (STUDY DURATION: 110-112 WK), Dose: 0, 5,000, 10,000 PPM IN DIET FOR 110 WK (STUDY DURATION: 110-112 WK)): inactive; negative

Compound: C#CCOc1ccc(CCNC(=O)C(OCC#C)c2ccc(Cl)cc2)cc1OC (stereo unspecified)
- carcinogen call (Species: Mouse, Strain/Sex: C57BL/10J CD-1 / Female (50/Group), Route: Oral, Dose: 0, 13.2, 67.8, 284.6 mg/kg/day of 96.5% mandipropamid in diet for 80 wk, study duration 80 wk, Dose: 0, 13.2, 67.8, 284.6 mg/kg/day of 96.5% mandipropamid in diet for 80 wk, study duration 80 wk): inactive; negative
- carcinogen call (Species: Mouse, Strain/Sex: C57BL/10J CD-1 / Male (50/Group), Route: Oral, Dose: 0, 10.6, 55.2, 222.7 mg/kg/day of 96.5% mandipropamid in diet for 80 wk, study duration 80 wk, Dose: 0, 10.6, 55.2, 222.7 mg/kg/day of 96.5% mandipropamid in diet for 80 wk, study duration 80 wk): inactive; negative
- carcinogen call (Species: Rat, Strain/Sex: Alpk:AP SD (Wistar-derived)/Female (52/Group), Route: Oral, Dose: 0, 3.5, 17.6, 69.7 mg/kg/day of 96.5% mandipropamid in diet for 104 wk, study duration 104 wk, Dose: 0, 3.5, 17.6, 69.7 mg/kg/day of 96.5% mandipropamid in diet for 104 wk, study duration 104 wk): inactive; negative
- carcinogen call (Species: Rat, Strain/Sex: Alpk:AP SD (Wistar-derived)/Male (52/Group), Route: Oral, Dose: 0, 3.0, 15.2, 61.3 mg/kg/day of 96.5% mandipropamid in diet for 104 wk, study duration 104 wk, Dose: 0, 3.0, 15.2, 61.3 mg/kg/day of 96.5% mandipropamid in diet for 104 wk, study duration 104 wk): inactive; negative

Compound: C1CCC2CCCCC2C1 (stereo unspecified)
- carcinogen call (Species: MOUSE, Strain/Sex: B6C3F1/FEMALE (50/GROUP), Route: INHALATION, Dose: 0, 25, 100, 400 PPM 6 HR/D, 5 D/WK FOR 105 WKS (STUDY DURATION: 105 WKS), Dose: 0, 25, 100, 400 PPM 6 HR/D, 5 D/WK FOR 105 WKS (STUDY DURATION: 105 WKS), Tumor Site: Type of Lesion: LIVER: HEPATOCELLULAR ADENOMA OR CARCINOMA (22%; 54%; 28%; 42%)): equivocal; ntp says marginal increase in uterine tumors but p values did not rea
- carcinogen call (Species: MOUSE, Strain/Sex: B6C3F1/MALE (50/GROUP), Route: INHALATION, Dose: 0, 25, 100, 400 PPM 6 HR/D, 5 D/WK FOR 105 WKS (STUDY DURATION: 105 WKS), Dose: 0, 25, 100, 400 PPM 6 HR/D, 5 D/WK FOR 105 WKS (STUDY DURATION: 105 WKS)): inactive; negative
- carcinogen call (Species: RAT, Strain/Sex: F344/FEMALE, Route: INHALATION, Dose: 0, 25, 100, 400 PPM IN AIR, 6 H PLUS 12 MIN/D, 5 D/WK FOR 2 YR (STUDY DURATION: 2 YR), Dose: 0, 25, 100, 400 PPM IN AIR, 6 H PLUS 12 MIN/D, 5 D/WK FOR 2 YR (STUDY DURATION: 2 YR)): inactive; negative
- carcinogen call (Species: RAT, Strain/Sex: F344/MALE, Route: INHALATION, Dose: 0, 25, 50, 100, 400 PPM IN AIR , 6 H PLUS 12 MIN/D, 5 D/WK FOR 2 YR (STUDY DURATION: 2 YR), Dose: 0, 25, 50, 100, 400 PPM IN AIR , 6 H PLUS 12 MIN/D, 5 D/WK FOR 2 YR (STUDY DURATION: 2 YR), Tumor Site: Type of Lesion: KIDNEY: RENAL TUBULE ADENOMA, RENAL TUBULE ADENOMA OR CARCINOMA): active; positive
- carcinogen call (Species: RAT, Strain/Sex: F344/N/FEMALE (50/GROUP), Route: INHALATION, Dose: 0, 25, 100, 400 PPM 6 HR/D, 5 D/WK FOR 105 WKS (STUDY DURATION: 105 WKS), Dose: 0, 25, 100, 400 PPM 6 HR/D, 5 D/WK FOR 105 WKS (STUDY DURATION: 105 WKS)): inactive; negative
- carcinogen call (Species: RAT, Strain/Sex: F344/N/MALE (20/GROUP), Route: INHALATION, Dose: 400 PPM 6 HR/D, 5 D/WK FOR 105 WKS (STUDY DURATION: 105 WKS), Tumor Site: Type of Lesion: KIDNEY: RENAL TUBULE ADENOMA OR CARCINOMA (30%), ADRENAL: PHEOCHROMOCYTOMA (40%)): active; positive
- carcinogen call (Species: RAT, Strain/Sex: F344/N/MALE (50/GROUP), Route: INHALATION, Dose: 0, 25, 50, 100 PPM 6 HR/D, 5 D/WK FOR 105 WKS (STUDY DURATION: 105 WKS), Dose: 0, 25, 50, 100 PPM 6 HR/D, 5 D/WK FOR 105 WKS (STUDY DURATION: 105 WKS), Tumor Site: Type of Lesion: KIDNEY: RENAL TUBULE ADENOMA OR CARCINOMA (2%; 6%; 14%; 24%), ADRENAL: BENIGN OR MALIGNANT PHEOCHROMOCYTOMA (16%, 18%, 2, Tumor Site: Type of Lesion: KIDNEY: RENAL TUBULE ADENOMA OR CARCINOMA (2%; 6%; 14%; 24%), ADRENAL: BENIGN OR MALIGNANT PHEOCHROMOCYTOMA (16%, 18%, 2): active; positive; alpha-2u-globulin, incidences of renal tubule regeneration and granula

Compound: CNNC (tested in a mixture with another compound)
- carcinogen call (Species: RAT, Strain/Sex: CD-1/MALE, Route: INTRAPERITONEAL, Dose: 0, 10 MG/KG/WK FOR 4 WK (STUDY DURATION: 1 YEAR), Tumor Site: Type of Lesion: PANCREAS: ADENOCARCINOMA, COLON: ADENOCARCINOMA): active; positive

Compound: COC1=CC(=O)C[C@@H](C)[C@]12Oc1c(Cl)c(OC)cc(OC)c1C2=O
- carcinogen call (Species: MOUSE, Strain/Sex: CD-1/MALE,FEMALE, Route: ORAL, Dose: 1% IN DIET FOR 12 TO 16 MO, Tumor Site: Type of Lesion: LIVER: HEPATOMA): active; positive
- carcinogen call (Species: MOUSE, Strain/Sex: ICR/MALE, Route: SUBCUTANEOUS, Dose: 0.5, 0.5, 1.0 OR 1.0 MG SUSPENDED IN TRICAPRYLIN (3 MG/ANIMAL, TOTAL DOSE) ON DAYS 1, 7, 14 AND 21 OF AGE, Tumor Site: Type of Lesion: LIVER: HEPATOMA): active; positive

Compound: C#C[C@]1(OC(C)=O)CC[C@H]2[C@@H]3CCC4=C[C@@H](OC(C)=O)CC[C@@H]4[C@H]3CC[C@@]21C
- carcinogen call (Species: MOUSE, Route: ORAL, Tumor Site: Type of Lesion: MAMMARY GLAND): active; positive
- carcinogen call (Species: RAT, Route: ORAL, Tumor Site: Type of Lesion: MAMMARY GLAND): active; positive

Compound: Cc1ccc([N+]#N)cc1
- carcinogen call (Species: MOUSE, Strain/Sex: SWISS/FEMALE, Route: SUBCUTANEOUS, Dose: 0, 50 UG/G 1/WK FOR 16 OR 19 WK (STUDY DURATION: 140 WK), Tumor Site: Type of Lesion: SUBCUTANEOUS TISSUE: TUMOR, SKIN: TUMOR): active; positive
- carcinogen call (Species: MOUSE, Strain/Sex: SWISS/MALE, Route: SUBCUTANEOUS, Dose: 0, 50 UG/G 1/WK FOR 16 OR 19 WK (STUDY DURATION: 140 WK), Tumor Site: Type of Lesion: SUBCUTANEOUS TISSUE: TUMOR): active; positive

Compound: C=CCOC(=O)c1ccccc1C(=O)OCC=C
- carcinogen call (Species: MOUSE, Strain/Sex: B6C3F1/FEMALE, Route: GAVAGE, Dose: 0, 150, 300 MG/KG IN CORN OIL FOR 5 D/WK FOR 103 WK (STUDY DURATION: 103 WK), Dose: 0, 150, 300 MG/KG IN CORN OIL FOR 5 D/WK FOR 103 WK (STUDY DURATION: 103 WK), Tumor Site: Type of Lesion: FORESTOMACH: SQUAMOUS CELL PAPILLOMA): equivocal
- carcinogen call (Species: MOUSE, Strain/Sex: B6C3F1/MALE, Route: GAVAGE, Dose: 0, 150, 300 MG/KG IN CORN OIL FOR 5 D/WK FOR 103 WK (STUDY DURATION: 103 WK), Dose: 0, 150, 300 MG/KG IN CORN OIL FOR 5 D/WK FOR 103 WK (STUDY DURATION: 103 WK), Tumor Site: Type of Lesion: FORESTOMACH: SQUAMOUS CELL PAPILLOMA, HEMATOPOIETIC SYSTEM: LYMPHOMA): equivocal
- carcinogen call (Species: RAT, Strain/Sex: F344/FEMALE, Route: GAVAGE, Dose: 0, 50, 100 MG/KG IN CORN OIL 5 D/WK FOR 103 WK (STUDY DURATION: 105 WK), Dose: 0, 50, 100 MG/KG IN CORN OIL 5 D/WK FOR 103 WK (STUDY DURATION: 105 WK), Tumor Site: Type of Lesion: HEMATOPOIETIC SYSTEM: MONONUCLEAR CELL LEUKEMIA): equivocal
- carcinogen call (Species: RAT, Strain/Sex: F344/MALE, Route: GAVAGE, Dose: 0, 50, 100 MG/KG IN CORN OIL 5 D/WK FOR 103 WK (STUDY DURATION: 105 WK), Dose: 0, 50, 100 MG/KG IN CORN OIL 5 D/WK FOR 103 WK (STUDY DURATION: 105 WK)): inactive; negative
